Data published in patent US20230108934A1, “Stabilizing Camptothecin Pharmaceutical Compositions” (Ipsen Biopharm Ltd., priority 2015, published 2023).
Where two headings read alike, the source gives them in different places.

Columns and labels:
[1] = Solubility determination of irinotecan sucrosofate in water; assay type: physicochemical; conditions: deionized water, 4-6° C., 22 hours
Experimental: An amount of 1.64 g of irinotecan hydrochloride trihydrate was added to 160 mL of water acidified with 0.008 mL of 1 N HCl, and heated on a 65° C. water bath with stirring until the drug was dissolved. Five mL of 0.46 M (based on sulfate concentration) triethylammonium sucrosofate were added with intensive stirring, and stirred for five minutes more. […] The precipitate was separated by centrifugation, and the supernatant solution was discarded. The pellet was resuspended in five volumes of deionized water, and precipitated by centrifugation; this washing step was repeated two more times until the pH of the suspension was about 5.8. […] An aliquot of the product was solubilized in 1 N HCl and analyzed for irinotecan (by spectrophotometry at 365 nm in 70% aqueous isopropanol-0.1 N HCl) and for sulfate after hydrolysis in a diluted (1:4) perchloric acid using a barium sulfate turbidimetric assay. […] The samples were incubated with agitation at 4-6° C. for 22 hours, the solid material was removed by centrifugation for 10 min at 14000 g, and the supernatant fluid was analyzed for irinotecan by spectrophotometry.

[2] = cited from earlier work

Compound	concentration of irinotecan in solution ([1]; final drug salt concentration 0.93 mg/mL)	concentration of irinotecan in solution ([1]; final drug salt concentration 1.85 mg/mL)	concentration of irinotecan in solution ([1]; final drug salt concentration 3.71 mg/mL)	irinotecan in the more active lactone form ([2]; pH 6.0)	irinotecan in the more active lactone form ([2]; pH 6.5)	irinotecan in the more active lactone form ([2]; pH 7.5)
CCc1c2c(nc3ccc(OC(=O)N4CCC(N5CCCCC5)CC4)cc13)-c1cc3c(c(=O)n1C2)COC(=O)[C@]3(O)CC [irinotecan sucrosofate]	58.9±0.90 micro-g/mL	63.2±0.6 micro-g/mL	63.4±1.3 micro-g/mL	–	–	–
CCc1c2c(nc3ccc(OC(=O)N4CCC(N5CCCCC5)CC4)cc13)-c1cc3c(c(=O)n1C2)COC(=O)[C@]3(O)CC [irinotecan]	–	–	–	about 85%	about 65%	about 15%
